Several values for one entry are separate records, joined by “and”; a condition that tells them apart may be missing. Identical values can stand only once. Like-named read-outs stand apart in the source and are kept apart here.
Columns and labels:
[1] = system: KB (human nasopharyngeal carcinoma) cell line; assay: Cytotoxicity against KB cell line; format: cell-based
[2] = system: LoVo (human colon-carcinoma) cell line; assay: Cytotoxicity against LoVo cell line; format: cell-based
[3] = system: Panc 03 (pancreatic ductal adenocarcinoma #03, P03); details: SC P03
Procedure: (§1) Gross log kill is defined as T-C/3.2 Td where T is the median time in days for the tumors of the treated group to reach 750 mg, C is the median time in days for the tumors of the control group to reach 750 mg, and Td is the tumor volume doubling time.

[4] = system: SKOV3 (human ovarian carcinoma) cell line; assay: Cytotoxicity against SKOV3 cell line; details: Table 2
[5] = system: murine leukemia (L1210 or P388), murine solid tumor, human solid tumor and low malignancy fibroblast (LML) cells; details: for Differential in Zone Units, Corbett Assay: μg/disk as for E3; for Type of Cytotoxicity, Corbett Assay: μg/disk: 1 12.5, 2 25, 3 25, 4 20, 5 2.9, 6 250, 8 30, 5-FU 2.5, VP-16 5, taxol 0.2, ^c selective against drug-sensitive and drug-resistant cell lines, ^d drug-sensitive cell lines only
[6] = system: Colon 38 (colon adenocarcinoma #38); details: SC C38
Procedure: as §1

Mam 16/C (mammary #16/C) = assay: In vivo activity, SC Mam 16/C tumor; details: Exp # 1885, 7 inj. IV, 21.3 mg/kg TD
Procedure: as §1

[7] = system: murine and human tumors implanted in mice
Procedure: as §1

[8] = system: Colon 51 (colon adenocarcinoma #51); assay: In vivo activity, SC Colon 51 tumor; details: Exp # 1900, 9 inj. IV, 67.5 mg/kg TD
Procedure: as §1

[9] = Exp # 1813, 9 inj. IV, 27 mg/kg TD
[10] = Exp # 1825, 11 inj. IV, 106 mg/kg TD
[11] = Exp # 1769, 15 inj. IV, 45 mg/kg TD
[12] = Exp # 1887B, 6 inj. IV, 30 mg/kg TD
[13] = Exp # 1843, 7 inj. IV, 23 mg/kg TD
[14] = Exp # 1843, 4 inj. IV, 28/5 mg/kg TD
[15] = Exp # 1878, 9 inj. IV, 82 mg/kg TD

COC(=O)[C@H](C)CNC(=O)[C@@H](Cc1ccc(OC)c(Cl)c1)NC(=O)/C=C/C[C@@H]1O[C@@H](c2ccccc2)[C@H](O)[C@H]1C [Cryptophycin 6]
KB IC50 ([1]; Table 1): ≥ 100 ng/mL
LoVo IC50 ([2]; Table 1): ≥ 100 ng/mL

COc1ccc(C[C@H]2NC(=O)/C=C/C[C@@H]([C@H](C)[C@H]3O[C@@H]3c3ccccc3)OC(=O)[C@H](CC(C)C)OC(=O)CCNC2=O)cc1Cl [Cryptophycin 21]
% Body Wt. Loss at Nadir [3, 9]: -11%
Cures [3, 9]: 0/5
Log Kill [3, 9]: None
T/C [3, 9]: 61%
dead [3, 9]: 1/5
SKOV3 IC50 [4]: 0.029 ng/mL
LoVo IC50 ([2]; Table 2): 0.0003 ng/mL

COc1ccc(C[C@H]2NC(=O)CC(C[C@H](O)[C@H](C)/C=C/c3ccccc3)OC(=O)[C@H](CC(C)C)OC(=O)[C@H](C)CNC2=O)cc1Cl (stereo partly shown) [Cryptophycin 26]
KB IC50 ([1]; Table 2): 19 ng/mL
SKOV3 IC50 [4]: 95 ng/mL
LoVo IC50 ([2]; Table 2): 9.8 ng/mL

COc1ccc(C[C@H]2NC(=O)/C=C/C[C@@H]([C@H](C)[C@@H](O)[C@@H](Cl)c3ccccc3)OC(=O)[C@H](CC(C)C)OC(=O)[C@H](C)CNC2=O)cc1Cl [Cryptophycin 8]
Differential in Zone Units, Corbett Assay [5]: > 500 Zone Units
Type of Cytotoxicity, Corbett Assay [5]: E/T
% Body Wt. Loss at Nadir [3, 10]: -6%
Cures [3, 10]: 0/5
Log Kill [3, 10]: 4.6
T/C [3, 10]: 4%
% Body Wt. Loss at Nadir [6, 11]: -2%
Cures [6, 11]: 0/5
Cures [6, 12]: 1/5
Log Kill [6, 12]: 2.8
T/C [6, 12]: 0%
KB IC50 ([1]; Table 1): 0.0002 ng/mL
KB IC50 ([1]; Table 2): 0.01 ng/mL
SKOV3 IC50 [4]: 0.15 ng/mL
LoVo IC50 ([2]; Table 1): 0.01 ng/mL
LoVo IC50 ([2]; Table 2): 0.0022 ng/mL
% Body Wt. Loss at Nadir (Mam 16/C (mammary #16/C)): -4.5%
Cures (Mam 16/C (mammary #16/C)): 0/5
Log Kill (Mam 16/C (mammary #16/C)): 2.5
T/C (Mam 16/C (mammary #16/C)): 6%
tumor burden T/C ([7]; all of the tumors tested to date): < 10%
lethal toxicity observed during testing ([7]; in vivo testing): attributed to leucopenia
gross log kill activity ratings ([7]; tumors implanted in mice): +++ to ++++
% Body Wt. Loss at Nadir [8]: -1%
Log Kill [8]: 1.8
T/C [8]: 7%

COc1ccc(CC(NC(=O)C=CCC2OC(c3ccccc3)C(O)C2C)C(=O)O)cc1Cl (stereo not shown) [Cryptophycin 7]
KB IC50 ([1]; Table 1): ≥ 750 ng/mL
LoVo IC50 ([2]; Table 1): ≥ 480 ng/mL

COc1ccc(C[C@H]2NC(=O)/C=C/C[C@@H]([C@H](C)[C@H]3O[C@@H]3c3ccccc3)OC(=O)[C@H](CC(C)C)OC(=O)CCNC2=O)cc1 [Cryptophycin 24]
KB IC50 ([1]; Table 2): 0.12 ng/mL
SKOV3 IC50 [4]: 0.3 ng/mL
LoVo IC50 ([2]; Table 2): 0.095 ng/mL

COc1ccc(C[C@H]2NC(=O)/C=C/C[C@@H]([C@H](C)[C@@H](O)[C@@H](O)c3ccccc3)OC(=O)[C@H](CC(C)C)OC(=O)[C@H](C)CNC2=O)cc1Cl [Cryptophycin 15]
SKOV3 IC50 [4]: 12 ng/mL

COc1cc([C@@H]2c3cc4c(cc3[C@@H](O[C@@H]3O[C@@H]5CO[C@@H](C)O[C@H]5[C@H](O)[C@H]3O)[C@H]3COC(=O)[C@H]23)OCO4)cc(OC)c1O [VP-16, etoposide, reference compound]
Differential in Zone Units, Corbett Assay [5]: 350 Zone Units and 530 Zone Units

COc1ccc(C[C@H]2NC(=O)/C=C/C[C@@H]([C@H](C)/C=C/c3ccccc3)OC(=O)[C@H](CC(C)C)OC(=O)[C@H](C)CNC2=O)cc1 [Cryptophycin 4]
Differential in Zone Units, Corbett Assay [5]: > 400 Zone Units
Type of Cytotoxicity, Corbett Assay [5]: E/T
SKOV3 IC50 [4]: 21 ng/mL
LoVo IC50 ([2]; Table 2): 2.5 ng/mL

CCC[C@@H]1OC(=O)[C@H](C)CNC(=O)[C@@H](Cc2ccc(OC)c(Cl)c2)NC(=O)/C=C/C[C@@H]([C@H](C)[C@H]2O[C@@H]2c2ccccc2)OC1=O [Cryptophycin 50]
SKOV3 IC50 [4]: 0.2 ng/mL

COc1c(Cl)cc(CC2NC(=O)C=CCC(C(C)C3OC3c3ccccc3)OC(=O)C(CC(C)C)OC(=O)C(C)CNC2=O)cc1Cl (stereo not shown) [Cryptophycin 31]
KB IC50 ([1]; Table 2): 0.53 ng/mL
SKOV3 IC50 [4]: 1.9 ng/mL
LoVo IC50 ([2]; Table 2): 0.062 ng/mL

COc1ccc(C[C@H]2NC(=O)/C=C/C[C@@H]([C@H](C)[C@H]3O[C@@H]3c3ccccc3)OC(=O)[C@H](CC(C)C)OC(=O)[C@H](C)CNC2=O)cc1 [Cryptophycin 2]
Differential in Zone Units, Corbett Assay [5]: > 400 Zone Units
Type of Cytotoxicity, Corbett Assay [5]: E/T
SKOV3 IC50 [4]: 0.18 ng/mL
LoVo IC50 ([2]; Table 1): 0.0002 ng/mL
LoVo IC50 ([2]; Table 2): 0.021 ng/mL

COc1ccc(CC2NC(=O)CCCC(C(C)C3OC3c3ccccc3)OC(=O)C(CC(C)C)OC(=O)C(C)CNC2=O)cc1Cl (stereo not shown) [Cryptophycin 35]
% Body Wt. Loss at Nadir [3, 13]: -2%
Cures [3, 13]: 0/5
Log Kill [3, 13]: 1.3
T/C [3, 13]: 11%
KB IC50 ([1]; Table 2): 0.055 ng/mL
SKOV3 IC50 [4]: 0.092 ng/mL
in vivo activity ([7]; the one trial that has been run to date): Good in vivo activity

CCC(C)C1OC(=O)C(C)CNC(=O)C(Cc2ccc(OC)c(Cl)c2)NC(=O)C=CCC(C(C)C=Cc2ccccc2)OC1=O (stereo not shown) [Cryptophycin 18]
SKOV3 IC50 [4]: 23 ng/mL
LoVo IC50 ([2]; Table 2): 4.5 ng/mL

COc1ccc(C[C@H]2NC(=O)/C=C/C[C@@H](C/C=C/c3ccccc3)OC(=O)[C@H](CC(C)C)OC(=O)[C@H](C)CNC2=O)cc1Cl [Cryptophycin 28]
KB IC50 ([1]; Table 2): 1.5 ng/mL
SKOV3 IC50 [4]: 6.1 ng/mL
LoVo IC50 ([2]; Table 2): 0.75 ng/mL

COc1ccc(C[C@H]2NC(=O)/C=C/C[C@@H]([C@H](C)/C=C/c3ccccc3)OC(=O)[C@H](CC(C)C)OC(=O)CCNC2=O)cc1Cl [Cryptophycin 29]
SKOV3 IC50 [4]: 3.4 ng/mL
LoVo IC50 ([2]; Table 2): 0.49 ng/mL

CC[C@H](C)[C@@H]1OC(=O)[C@H](C)CNC(=O)[C@@H](Cc2ccc(OC)c(Cl)c2)NC(=O)/C=C/C[C@@H]([C@H](C)[C@H]2O[C@@H]2c2ccccc2)OC1=O [Cryptophycin 54]
KB IC50 ([1]; Table 2): 0.80 ng/mL
SKOV3 IC50 [4]: 2.2 ng/mL
LoVo IC50 ([2]; Table 2): 2.2 ng/mL

COc1ccc(C[C@H]2NC(=O)/C=C/C[C@@H]([C@H](C)/C=C/c3ccccc3)OC(=O)[C@H](CC(C)C)OC(=O)[C@H](C)CNC2=O)cc1Cl [Cryptophycin 3]
Differential in Zone Units, Corbett Assay [5]: > 400 Zone Units
Type of Cytotoxicity, Corbett Assay [5]: E/T
% Body Wt. Loss at Nadir [3, 14]: -9%
Cures [3, 14]: 0/5
Log Kill [3, 14]: < 1
T/C [3, 14]: 54%
KB IC50 ([1]; Table 1): 0.3 ng/mL
SKOV3 IC50 [4]: 2.8 ng/mL
LoVo IC50 ([2]; Table 1): 0.5 ng/mL
LoVo IC50 ([2]; Table 2): 0.6 ng/mL

COc1ccc(CC2NC(=O)C=CCC(CC3OC3c3ccccc3)OC(=O)C(CC(C)C)OC(=O)C(C)CNC2=O)cc1Cl (stereo not shown) [Cryptophycin 40]
KB IC50 ([1]; Table 2): 9.0 ng/mL
LoVo IC50 ([2]; Table 2): 1.0 ng/mL

CC(C)CC1OC(=O)C(C)CNC(=O)C(Cc2ccc(O)c(Cl)c2)NC(=O)C=CCC(C(C)C=Cc2ccccc2)OC1=O (stereo not shown) [Cryptophycin 17]
KB IC50 ([1]; Table 2): 4.7 ng/mL
SKOV3 IC50 [4]: 11 ng/mL
LoVo IC50 ([2]; Table 2): 5.9 ng/mL

CCCC1OC(=O)C(C)CNC(=O)C(Cc2ccc(OC)c(Cl)c2)NC(=O)C=CCC(C(C)C=Cc2ccccc2)OC1=O (stereo not shown) [Cryptophycin 49]
SKOV3 IC50 [4]: 1.1 ng/mL

COc1ccc(C[C@@H](NC(=O)/C=C/C[C@H](O)[C@H](C)[C@@H](O)[C@@H](OC)c2ccccc2)C(=O)NC[C@@H](C)C(=O)O)cc1Cl [Cryptophycin 10]
KB IC50 ([1]; Table 1): ≥ 100 ng/mL
LoVo IC50 ([2]; Table 1): ≥ 100 ng/mL

COc1ccc(CC2NC(=O)C=CCC(C(C)C(O)C(OC)c3ccccc3)OC(=O)C(CC(C)C)OC(=O)C(C)CNC2=O)cc1Cl (stereo not shown) [Cryptophycin 9]
KB IC50 ([1]; Table 1): 15 ng/mL

COc1ccc(C[C@@H](NC(=O)/C=C/C[C@@H]2O[C@@H](c3ccccc3)[C@H](O)[C@H]2C)C(=O)NC[C@@H](C)C(=O)O)cc1Cl [Cryptophycin 12]
KB IC50 ([1]; Table 1): ≥ 100 ng/mL
KB IC50 ([1]; Table 2): 18 ng/mL

CC(C)C[C@@H]1OC(=O)[C@H](C)CNC(=O)[C@@H](Cc2ccc(O)c(Cl)c2)NC(=O)/C=C/C[C@@H]([C@H](C)[C@H]2O[C@@H]2c2ccccc2)OC1=O [Cryptophycin 16]
% Body Wt. Loss at Nadir [3, 15]: -1%
Cures [3, 15]: 0/5
Log Kill [3, 15]: None
T/C [3, 15]: 89%
KB IC50 ([1]; Table 2): 0.08 ng/mL
SKOV3 IC50 [4]: 0.64 ng/mL

COc1ccc(C[C@H]2NC(=O)C[C@H](O)C[C@@H]([C@H](C)/C=C/c3ccccc3)OC(=O)[C@H](CC(C)C)OC(=O)[C@H](C)CNC2=O)cc1Cl [Cryptophycin 30]
KB IC50 ([1]; Table 2): 11 ng/mL

COc1ccc(CC(NC(=O)C=CCC(O)C(C)C=Cc2ccccc2)C(=O)NCC(C)C(=O)O)cc1Cl (stereo not shown) [Cryptophycin 14]
KB IC50 ([1]; Table 1): 1.8 ng/mL

COc1ccc(CC2NC(=O)C=CCC(C(C)C=Cc3ccccc3)OC(=O)C(C(C)C)OC(=O)C(C)CNC2=O)cc1Cl (stereo not shown) [Cryptophycin 19]
KB IC50 ([1]; Table 2): 9.8 ng/mL
SKOV3 IC50 [4]: 41 ng/mL
